Patent US20230398232A1, “Composition and Use of Alternatively Formatted Anti-Mesothelin Antibodies for the Treatment of Cancer” (Navrogen, Inc., priority 2020, published 2023)
Square brackets hold non-standard residues; d marks the D form. Peptide text beside a SMILES is read from it. * marks the point of attachment. Dolaproine = CO[C@@H]([C@@H]1CCCN1)[C@@H](C)C(=O)O; Dil = CC[C@H](C)[C@H](NC)[C@@H](CC(=O)O)OC; X1 = C[C@@H](N*)[C@@H](O)c1ccccc1; NMeV = CN[C@H](C(=O)O)C(C)C

Experiments:
[1] = system: NCI-N87, SW1990, HAY, YOU, OVCAR3 and A549 cells; assay: Free cytotoxin cytotoxicity, crystal violet viability; assay type: cell-based, human; conditions: 72 hours, average over cell lines
Text: FIGS. 2A-C. Cytotoxic payloads and linkers examined for developing reformatted MES-1 antibody for optimal killing of immunoproficient and immunosuppressed mesothelin expressing cancer cells. FIG. 2A provides chemical structures of various types of cytotoxic payloads (i.e., microtubule inhibitors, DNA alkylating agents, topoisomerase inhibitors, and protein kinase inhibitors, see, e.g., Yaghoubi S, et al. J Cell Physiol 235:31-64, 2019; Wang R E, et al. J Am Chem Soc 137:3229-3232, 2015) tested against immunosuppressive and immunoproficient mesothelin expressing target cells. FIG. 2B provides chemical structures of various enzymatic and non-enzymatic cleavable and non-cleavable linkers tested to generate MES-ADCs against immunosuppressive and immune-proficient mesothelin expressing target cells. FIG. 2C provides an overview of the cytotoxicity of potential ADC payloads against mesothelin expressing cancer cells or control cell lines (Table 1). Briefly, 96-well tissue culture plates were seeded with 5,000 cells/well of mesothelin-positive NCI-N87 (CA125^+ gastric cancer), SW1990 (CA125^+ pancreatic cancer), HAY (CA125^+ mesothelioma), YOU (CA125^− mesothelioma), OVCAR3 (CA125^+ ovarian cancer) and A549 (mesothelin negative lung cancer) cells in 100 μLs of RPMI plus 7.5% heat inactivated fetal bovine serum (FBS), and 0.0001 to 500 ng/mL of cytotoxin or negative control. Cultures were incubated for 72 hours at 37° C. in 5% CO2 then quantified for viability using crystal violet staining. Dried stained wells were solubilized using 1% SDS in phosphate buffer saline (PBS) and quantified by colorimetric densitometry on a Varioskan™ multi-well plate reader at 570 nm. […] Experiments represent a minimum of triplicate wells. Statistical analysis was done using a two-sided Student' T-test.
To identify best candidates to meet this criteria, we first tested different classes of cytotoxins including DNA alkylating agents, microtubule inhibitors, and topoisomerase inhibitors (FIG. 2A). […]

[2] = system: mesothelioma; conditions: patients with elevated CA125 vs low CA125; cited from earlier work
[3] = system: follicular lymphoma; conditions: CA125 in normal range vs above normal range; cited from earlier work

| Compound | average EC50 [1] | other results |
| --- | --- | --- |
| CCc1c2c(nc3ccc(O)cc13)-c1cc3c(c(=O)n1C2)COC(=O)[C@]3(O)CC [SN38] | 2.44 ng/mL |  |
| CC[C@H](C)[C@@H]([C@@H](CC(=O)N1CCC[C@H]1[C@H](OC)[C@@H](C)C(=O)N[C@H](C)[C@@H](O)c1ccccc1)OC)N(C)C(=O)[C@@H](NC(=O)[C@@H](NC)C(C)C)C(C)C [MMAE, Monomethyl Auristatin E] (H-[NMeV]V[Dil][Dolaproine]-X1) | 1.39 ng/mL |  |
| COc1cccc2c1C(=O)c1c(O)c3c(c(O)c1C2=O)C[C@@](O)(C(=O)CO)C[C@@H]3O[C@H]1C[C@H]2[C@H](O[C@@H]3[C@@H](OC)OCCN32)[C@H](C)O1 [PNU159682, reference compound] | 0.014 ng/mL |  |
| amatuximab: anti-mesothelin antibody |  | PFS and OS outcomes [2]: worse progression-free survival (PFS) and overall survival (OS) outcomes |
| rituximab: clinically used rituximab antibody |  | improvement in 5-year progression-free survival [3]: 31.4% |
